The target of one test is AC1 (Homo sapiens, UniProt Q08828). Kind of test: Adenylyl cyclase cAMP accumulation assay, HEK-ACA3/6 cells overexpressing human AC1. The format is cell-based. Also noted: expressed in transfected cells; host or cells: HEK-ACA3/6 cells (so in the source) overexpressing human AC1. The following applies: Table 2; 3 μM A23187 + 0.5 mM IBMX, HTRF cAMP; read-out: AC1 IC50 (μM) ± SEM. The procedure:
Cryopreserved HEK-ACA3/6 cells overexpressing human AC1, AC2, AC5, or AC8 were transferred to a 15 mL Falcon tube and gently resuspended in prewarmed Opti-MEM.50 The cells were centrifuged for 5 min at 150 g, the supernatant was discarded, and the cell pellet was resuspended in 10 mL for a second centrifugation step. Then, the cells were counted, plated in a white opaque 384-well plate, and incubated for 1 h in a 37° C. incubator supplemented with 5% CO2. The hit compounds' working solutions were prepared in prewarmed Opti-MEM, and successive serial dilutions were prepared using a Precision 2000 automated pipetting system. Dose*-response curves were generated for each hit compound using a threefold serial dilution starting at 30 μM concentration (at least 6-points per curve). Compounds were added to the assay plates and incubated for 30 min at room temperature. AC activity was selectively stimulated on each AC isoform with 3 μM A23187 (AC1 and AC8), 100 nM PMA (AC2), or a low concentration (1 μM) of the AC activator, forskolin (AC5). All stimulants of AC activity were added in combination with IBMX at a final concentration of 0.5 mM. After 1 h incubation with the stimulant at room temperature, cAMP accumulation was detected using the fluorescence-based Cisbio HTRF cAMP detection kit. […] Percent inhibition at the highest concentration was used to determine max % inhibition (Max AC8% Inhibition). […]
(Cyclic AMP is a second messenger, typically raised through Gs and lowered through Gi signalling.)

Another test addresses AC8 (Homo sapiens, UniProt P40145). The test can be described thus: Adenylyl cyclase cAMP accumulation assay, HEK-ACA3/6 cells overexpressing human AC8. In kind it is cell-based. Also noted: expressed in transfected cells; host or cells: HEK-ACA3/6 cells (so in the source) overexpressing human AC8. The following applies: Table 2; for IC50: 3 μM A23187 + 0.5 mM IBMX, HTRF cAMP, read-out: AC8 IC50 (μM) ± SEM; for inhibition at up to 30 µM: percent inhibition at the highest concentration (dilution starting at 30 μM), read-out: Max AC8 % inhibition. The procedure: Cryopreserved HEK-ACA3/6 cells overexpressing human AC1, AC2, AC5, or AC8 were transferred to a 15 mL Falcon tube and gently resuspended in prewarmed Opti-MEM.50 The cells were centrifuged for 5 min at 150 g, the supernatant was discarded, and the cell pellet was resuspended in 10 mL for a second centrifugation step. Then, the cells were counted, plated in a white opaque 384-well plate, and incubated for 1 h in a 37° C. incubator supplemented with 5% CO2. The hit compounds' working solutions were prepared in prewarmed Opti-MEM, and successive serial dilutions were prepared using a Precision 2000 automated pipetting system. Dose*-response curves were generated for each hit compound using a threefold serial dilution starting at 30 μM concentration (at least 6-points per curve). Compounds were added to the assay plates and incubated for 30 min at room temperature. AC activity was selectively stimulated on each AC isoform with 3 μM A23187 (AC1 and AC8), 100 nM PMA (AC2), or a low concentration (1 μM) of the AC activator, forskolin (AC5). All stimulants of AC activity were added in combination with IBMX at a final concentration of 0.5 mM. After 1 h incubation with the stimulant at room temperature, cAMP accumulation was detected using the fluorescence-based Cisbio HTRF cAMP detection kit. […] Percent inhibition at the highest concentration was used to determine max % inhibition (Max AC8% Inhibition).
The Max AC8 inhibition is a description of the maximum efficacy of molecules against AC8.

Molecules are shown by their SMILES.

AC8, sequence (P40145 whole entry): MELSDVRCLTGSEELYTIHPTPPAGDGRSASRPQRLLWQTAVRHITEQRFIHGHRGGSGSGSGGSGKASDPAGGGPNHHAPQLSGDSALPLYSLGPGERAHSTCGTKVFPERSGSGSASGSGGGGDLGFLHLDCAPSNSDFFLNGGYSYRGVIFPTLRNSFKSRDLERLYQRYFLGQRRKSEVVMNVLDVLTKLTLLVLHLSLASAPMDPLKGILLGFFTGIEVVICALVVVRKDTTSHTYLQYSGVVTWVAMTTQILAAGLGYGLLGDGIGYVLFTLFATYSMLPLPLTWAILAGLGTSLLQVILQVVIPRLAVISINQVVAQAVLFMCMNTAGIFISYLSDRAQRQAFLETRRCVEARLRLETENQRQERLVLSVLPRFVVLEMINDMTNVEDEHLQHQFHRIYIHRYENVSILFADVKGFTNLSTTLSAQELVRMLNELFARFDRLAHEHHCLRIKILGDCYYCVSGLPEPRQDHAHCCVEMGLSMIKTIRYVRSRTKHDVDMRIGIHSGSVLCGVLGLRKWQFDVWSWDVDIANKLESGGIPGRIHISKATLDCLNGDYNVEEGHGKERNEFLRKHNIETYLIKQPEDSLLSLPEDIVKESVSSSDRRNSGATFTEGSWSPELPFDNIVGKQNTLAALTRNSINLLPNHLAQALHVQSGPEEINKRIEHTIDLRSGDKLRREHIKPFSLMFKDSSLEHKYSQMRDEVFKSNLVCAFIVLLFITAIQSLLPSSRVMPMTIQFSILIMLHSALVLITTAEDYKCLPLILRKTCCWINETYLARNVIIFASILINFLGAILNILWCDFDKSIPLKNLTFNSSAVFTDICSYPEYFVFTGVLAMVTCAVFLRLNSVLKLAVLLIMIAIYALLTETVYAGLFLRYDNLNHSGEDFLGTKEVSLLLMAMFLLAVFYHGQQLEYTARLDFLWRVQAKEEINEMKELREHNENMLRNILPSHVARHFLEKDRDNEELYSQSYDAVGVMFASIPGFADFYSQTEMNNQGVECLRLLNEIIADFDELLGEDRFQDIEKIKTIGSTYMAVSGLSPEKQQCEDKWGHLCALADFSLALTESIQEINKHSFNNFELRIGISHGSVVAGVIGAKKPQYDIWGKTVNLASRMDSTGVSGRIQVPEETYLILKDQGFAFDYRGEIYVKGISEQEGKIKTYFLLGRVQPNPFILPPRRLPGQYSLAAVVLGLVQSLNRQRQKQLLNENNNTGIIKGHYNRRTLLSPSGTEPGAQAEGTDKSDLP
AC1, sequence (Q08828 whole entry): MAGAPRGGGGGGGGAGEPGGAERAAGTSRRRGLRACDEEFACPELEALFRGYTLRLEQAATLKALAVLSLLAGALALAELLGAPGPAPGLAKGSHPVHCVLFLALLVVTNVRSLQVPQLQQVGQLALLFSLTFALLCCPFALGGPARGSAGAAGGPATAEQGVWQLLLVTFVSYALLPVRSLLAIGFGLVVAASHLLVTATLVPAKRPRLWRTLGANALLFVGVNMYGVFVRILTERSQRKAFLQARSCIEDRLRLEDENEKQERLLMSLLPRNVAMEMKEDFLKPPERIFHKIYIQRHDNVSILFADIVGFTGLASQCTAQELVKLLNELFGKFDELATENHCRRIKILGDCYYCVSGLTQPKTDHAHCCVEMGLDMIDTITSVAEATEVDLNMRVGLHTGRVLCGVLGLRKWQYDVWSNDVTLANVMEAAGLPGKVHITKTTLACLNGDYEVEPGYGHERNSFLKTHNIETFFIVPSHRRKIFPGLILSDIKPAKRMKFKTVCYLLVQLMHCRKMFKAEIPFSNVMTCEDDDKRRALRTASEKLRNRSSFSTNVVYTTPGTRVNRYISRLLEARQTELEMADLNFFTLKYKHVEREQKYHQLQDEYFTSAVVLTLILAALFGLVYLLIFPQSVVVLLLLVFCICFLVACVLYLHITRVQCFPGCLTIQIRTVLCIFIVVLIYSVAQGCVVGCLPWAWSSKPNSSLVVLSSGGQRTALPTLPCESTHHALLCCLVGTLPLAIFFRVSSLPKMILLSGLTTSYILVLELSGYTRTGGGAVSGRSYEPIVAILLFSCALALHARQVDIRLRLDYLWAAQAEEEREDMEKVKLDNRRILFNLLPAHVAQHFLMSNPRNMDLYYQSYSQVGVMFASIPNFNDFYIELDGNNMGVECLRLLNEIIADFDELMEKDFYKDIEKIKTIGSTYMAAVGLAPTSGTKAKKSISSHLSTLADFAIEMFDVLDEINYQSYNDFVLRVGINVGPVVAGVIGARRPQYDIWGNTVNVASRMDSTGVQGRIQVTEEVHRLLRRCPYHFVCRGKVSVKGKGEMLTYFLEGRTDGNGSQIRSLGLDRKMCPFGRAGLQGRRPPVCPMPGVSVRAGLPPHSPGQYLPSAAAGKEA

By IC50 is commonly meant the concentration needed to halve the response being measured. The term inhibition denotes the change of the read-out against control, counted positive when it falls. Turning to `Cc1cc(NCc2ccc(Cl)cc2)n(-c2ccccc2)n1` [AC10113A], the half-inhibitory concentration (IC50) on AC1 came out at 15.5 ± 8.63 µM. At AC8, the IC50 was more than 60 µM and the inhibition at up to 30 µM stood at 19%.

Take `CCc1cc(=O)[nH]c(-n2nc(C)cc2NCc2cccs2)n1` [AC10140A]: the IC50 on AC1 was 0.39 ± 0.02 µM; on AC8, more than 60 µM. The inhibition at up to 30 µM on AC8 stood at 4%.

As for `Cc1cc(=O)[nH]c(-n2nc(C)cc2NCc2ccc(Cl)cc2)n1` [AC10111A], the IC50 on AC1 is 0.36 ± 0.12 µM. Further, on AC8, the half-maximal inhibitory concentration (IC50) amounted to 31.8 ± 19.3 µM and the inhibition at up to 30 µM was 35%.

Turning to `CCc1cc(=O)[nH]c(-n2nc(-c3ccccc3)cc2NCc2ccc(OC)cc2)n1` [AC10112A], on AC1, the concentration for half-maximal inhibition (IC50) was determined as 0.86 ± 0.07 µM. Besides, at AC8, the IC50 is 45.3 ± 14.1 µM and the inhibition at up to 30 µM was determined as 37%.

For `Cc1cccc(CNc2cc(C)nn2-c2nc(C)cc(=O)[nH]2)c1` [AC10114A], the figures for the IC50 at AC1 and on AC8 were 0.63 ± 0.22 µM and more than 60 µM, respectively. In addition, the inhibition at up to 30 µM at AC8 is 33%.

In the case of `CCc1cc(=O)[nH]c(-n2nc(C)cc2NCc2ccco2)n1` [AC10139A], the IC50 on AC1 is 1.07 ± 0.07 µM. At AC8, the IC50 was more than 60 µM and the inhibition at up to 30 µM was found to be 23%.

`CCc1cc(=O)[nH]c(-n2nc(C)cc2NCc2ccc(C(=O)c3ccccc3)cc2)n1` [AC10144A]: at AC1, the IC50 is 0.26 ± 0.03 µM. Also, at AC8, the IC50 stood at 2.01 ± 0.09 µM and the inhibition at up to 30 µM was determined as 84%.

For the compound `Cc1cccc(CNc2cc(C)nn2-c2nc3c(c(=O)[nH]2)CCC3)c1` [AC10115A], the IC50 on AC1 turned out to be 0.75 ± 0.39 µM. Moreover, on AC8, the IC50 was 10.8 ± 4.61 µM and the inhibition at up to 30 µM came out at 82%.

As for `Cc1cccc(CNc2cc(C)nn2-c2nccc(=O)[nH]2)c1` [AC10116A], the IC50 on AC1 turned out to be 2.63 ± 0.51 µM. Moreover, on AC8, the IC50 was 8.23 ± 4.05 µM and the inhibition at up to 30 µM is 83%.

`Cc1cc(NCc2ccc(Cl)cc2)n(-c2nc3c(c(=O)[nH]2)CCC3)n1` [AC10110A]: the IC50 on AC1 turned out to be 7.49 ± 2.9 µM; on AC8, 58.9 ± 36.1 µM. In addition, at AC8, the inhibition at up to 30 µM was 48%.

The record behind these values is patent US20230250084A1, “PYRAZOLYL PYRIMIDINONE COMPOUNDS AND THE USES THEREOF” (Purdue Research Foundation, priority 2019, published 2023).
